For 5 compounds, Km results are on record in article PMC5573764, “Enzymatic characterization of a recombinant carbonyl reductase from Acetobacter sp. CCTCC M209061” (Bioresources and Bioprocessing, 2017).

Structures are written as SMILES.

Common to all, as to assay type: biochemical, Acetobacter sp. CCTCC M209061
Assay [1] deals with T1, AcCR (recombinant carbonyl reductase; GAcCR) (Acetobacter sp., UniProt A0A2S1GUX7).
T1 construct: N-terminal GST fusion from pGEX-2T, tag kept, about 53 kDa on SDS-PAGE; E. coli BL21(DE3)pLysS
T1 sequence (A0A2S1GUX7 1-253): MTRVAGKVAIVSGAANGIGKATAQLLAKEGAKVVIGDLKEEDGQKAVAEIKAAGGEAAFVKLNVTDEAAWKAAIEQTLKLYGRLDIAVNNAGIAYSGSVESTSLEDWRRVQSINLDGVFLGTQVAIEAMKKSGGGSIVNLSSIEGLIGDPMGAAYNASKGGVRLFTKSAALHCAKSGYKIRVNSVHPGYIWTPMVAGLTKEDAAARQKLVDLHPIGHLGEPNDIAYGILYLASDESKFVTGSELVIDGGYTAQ
Description: NADH absorbance at […] nm, initial rates. The conditions noted are these: pH 6.5, 35 °C (optimum conditions), GST-tagged enzyme.

The target in assay [2] is T1, AcCR (recombinant carbonyl reductase; GAcCR). In words: NADH formation at […] nm, initial rates. The settings on record: 45 °C, optimum conditions (pH 8.0 in assay method, optimum 8.5), GST-tagged enzyme.
The target is the same in assay [3]. Description: NADPH formation at […] nm, initial rates. The conditions noted are these: oxidation of isopropanol; 45 °C; optimum conditions (pH 8.0 in assay method); GST-tagged enzyme.

Broadly, the Km is the concentration of substrate that gives half-maximal velocity. On to `CC(=O)c1ccc(Cl)cc1` [4′-Chloroacetophenone], for which, in assay [1] (co-substrate NADH), the Km worked out at 260 µM. In the case of `CC(C)O` [Isopropanol], in assay [2] (co-substrate NAD+), the Km turned out to be 23800 µM.

For the compound `NC(=O)C1=CN([C@@H]2O[C@H](COP(=O)(O)OP(=O)(O)OC[C@H]3O[C@@H](n4cnc5c(N)ncnc54)[C@H](O)[C@@H]3O)[C@@H](O)[C@H]2O)C=CC1` [NADH], the Km in assay [1] (reduction of 4'-chloroacetophenone) was determined as 160 µM. `NC(=O)c1ccc[n+]([C@@H]2O[C@H](COP(=O)(O)OP(=O)(O)OC[C@H]3O[C@@H](n4cnc5c(N)ncnc54)[C@H](OP(=O)(O)O)[C@@H]3O)[C@@H](O)[C@H]2O)c1` [NADP^+]: in assay [3], the Km came to 1390 µM. Turning to `NC(=O)c1ccc[n+]([C@@H]2O[C@H](COP(=O)(O)OP(=O)(O)OC[C@H]3O[C@@H](n4cnc5c(N)ncnc54)[C@H](O)[C@@H]3O)[C@@H](O)[C@H]2O)c1` [NAD^+], the Km in assay [2] (oxidation of isopropanol) was found to be 380 µM.
